Broadly, the IC50 is the concentration that gives 50% inhibition. Usually EC50 stands for the concentration at which the effect is half-maximal.

We go through 22 compounds from publication PMC5632197 (Bioorganic & medicinal chemistry, 2017).

In series [1] the test system is T. brucei. The settings on record: 7-day 50 mg/kg/day intraperitoneal dosage; cited from earlier work.
For series [2] the following is noted: mice; cited from earlier work.
For series [3], the system named is CNS stage of HAT. The settings on record: cited from earlier work.
For series [4], the target named is T1, T. brucei AdoMetDC/prozyme (Trypanosoma brucei brucei, UniProt P50244).
T1 sequence (P50244 86-370 limits assumed): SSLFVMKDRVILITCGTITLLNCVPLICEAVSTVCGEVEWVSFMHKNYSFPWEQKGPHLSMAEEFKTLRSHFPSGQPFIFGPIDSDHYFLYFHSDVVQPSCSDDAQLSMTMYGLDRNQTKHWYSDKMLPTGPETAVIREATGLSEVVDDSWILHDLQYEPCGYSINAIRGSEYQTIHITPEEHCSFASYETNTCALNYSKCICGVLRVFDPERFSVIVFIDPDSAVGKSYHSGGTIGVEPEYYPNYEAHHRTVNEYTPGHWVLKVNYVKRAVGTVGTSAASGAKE
The series can be described thus: T. brucei AdoMetDC enzyme activity assay. Type of series: biochemical. The settings on record: for fold less active against AdoMetDC compared to parent: compared to 1 (27 versus 11a), IC50 with PI.

The subject of series [5] is T. brucei Lister 427 bloodstream-form cells. The series can be described thus: T. brucei cell growth inhibition assay. In kind it is cell-based, Trypanosoma brucei brucei.
[6] abbreviates: AdoMetDC IC50 with PI, with 30 min pre-incubation, triplicate.
The mark [7] stands for this setting: AdoMetDC IC50 without PI, without pre-incubation, triplicate.

Each structure is given as a SMILES string. “Also recorded” adds a separate entry of the source. Where two headings read alike, the source gives them in different places.

For the compound `CN(C/C=C\CN)C[C@H]1O[C@@H](n2cnc3c(N)ncnc32)[C@H](O)[C@@H]1O` [Compound 1, 5'-(((Z)-4-amino-2-butenyl)methylamino)-5'-deoxyadenosine], the “cure of mice infected with T. brucei” value in series [1] was “sterile cure”. Besides, in series [2], the brain-to-blood ratio was 1.7%. Moreover, in series [3], the “cure in mouse model of the CNS stage of HAT” value is “not efficacious; also recorded: neither compound led to a cure”. As to `Cc1nc2c(N)ncnc2n1[C@@H]1O[C@H](CN(C)C/C=C\CNC(=O)OC(C)C)[C@@H](O)[C@H]1O` [Compound 3c], the IC50 in series [4] (setting [6]) and in series [4] (setting [7]) was above 50 µM in each case. As to `CCCC(=O)NC/C=C\CN(C)C[C@H]1O[C@@H](n2cnc3c(N)ncnc32)[C@H](O)[C@@H]1O` [Compound 5c], the IC50 in series [4] (setting [6]) and in series [4] (setting [7]) was above 50 µM in each case.

For `CC(=O)NC/C=C\CN(C)C[C@H]1O[C@@H](n2cnc3c(N)ncnc32)[C@H](OC(C)=O)[C@@H]1OC(C)=O` [Compound 6a], the IC50 in series [4] (setting [6]) and in series [4] (setting [7]) was above 50 µM in each case. `CCC(=O)NC/C=C\CN(C)C[C@H]1O[C@@H](n2cnc3c(N)ncnc32)[C@H](OC(C)=O)[C@@H]1OC(C)=O` [Compound 6b]: the IC50 in series [4] (setting [6]) and in series [4] (setting [7]) was above 50 µM each time. Take `CCCC(=O)NC/C=C\CN(C)C[C@H]1O[C@@H](n2cnc3c(N)ncnc32)[C@H](OC(C)=O)[C@@H]1OC(C)=O` [Compound 6c]: the IC50 in series [4] (setting [6]) and in series [4] (setting [7]) was above 50 µM each time. Consider `Cc1nc2c(N)ncnc2n1[C@@H]1O[C@H](CN(C)C/C=C\CNC(=O)OC(C)(C)C)[C@H]2OC(C)(C)O[C@H]21` [Compound 10a], for which the IC50 in series [4] (setting [6]) and in series [4] (setting [7]) was above 50 µM throughout.

For `Cc1nc2c(N)ncnc2n1[C@@H]1O[C@H](CN(C/C=C\CNC(=O)OC(C)(C)C)C2CC2)[C@H]2OC(C)(C)O[C@H]21` [Compound 10c], the IC50 in series [4] (setting [7]) is above 50 µM. `CN(C/C=C\CN)C[C@H]1O[C@@H](n2cnc3c(N)ncnc32)[C@@H]2OC(C)(C)O[C@@H]21` [Compound 11a]: in series [5] (EC50 compared to parent MDL 73811 (1)), the “fold reduced activity in T. b. brucei cell growth assay compared to 1” value was ~ 50 fold. Further, the “fold less active against AdoMetDC compared to parent” value (from here on “fold less active against AdoMetDC”) in series [4] is reported as ~ 50 fold. On to `CC1(C)O[C@@H]2[C@H](O1)[C@@H](CN(C/C=C\CN)CCF)O[C@H]2n1cnc2c(N)ncnc21` [Compound 11b], for which the IC50 in series [4] (setting [6]) and in series [4] (setting [7]) was above 50 µM each time. `Cc1nc2c(N)ncnc2n1[C@@H]1O[C@H](CN(C/C=C\CN)C2CC2)[C@H]2OC(C)(C)O[C@H]21` [Compound 11c]: the IC50 in series [4] (setting [6]) and in series [4] (setting [7]) was above 50 µM throughout.

`Cc1nc2c(N)ncnc2n1[C@@H]1O[C@H](CN(C/C=C\CN)CCO)[C@H]2OC(C)(C)O[C@H]21` [Compound 11d]: the IC50 in series [4] (setting [6]) and in series [4] (setting [7]) was above 50 µM in each case.

In series [4] (setting [7]), `NC/C=C\CN(CCF)C[C@H]1O[C@@H](n2cnc3c(N)ncnc32)[C@H](O)[C@@H]1O` [Compound 12b] registered an IC50 above 50 µM. On to `Cc1nc2c(N)ncnc2n1[C@@H]1O[C@H](CN(C/C=C\CN)C2CC2)[C@@H](O)[C@H]1O` [Compound 12c], for which the IC50 in series [4] (setting [6]) and in series [4] (setting [7]) was above 50 µM each time. Turning to `CN(CC=CCN)CC1OC(n2cnc3c(N)ncnc32)C2OC3(CCCCC3)OC12` (stereo not drawn) [Compound 22], the EC50 in series [5] (read-out: EC50 (T. b. brucei), 48 h cell viability, triplicate) is above 25 µM. For the same compound, in series [4] (read-out: AdoMetDC IC50, pre-incubation not stated), the IC50 is above 50 µM. In turn, `CNc1ncnc2c1ncn2[C@@H]1O[C@H](CN(C)C/C=C\CN)[C@H]2OC(C)(C)O[C@H]21` [Compound 27] came in with an IC50 in series [4] (setting [7]) above 50 µM. The “fold less active against AdoMetDC” value in series [4] is reported as 3- to 4 fold. In the case of `CNc1ncnc2c1ncn2[C@@H]1O[C@H](CN(C)C/C=C\CN)[C@@H](O)[C@H]1O` [Compound 28a], the “fold less active against AdoMetDC” value in series [4] is listed as 3- to 4 fold.

For `CN(C/C=C\CN)C[C@H]1O[C@@H](n2cnc3c(N(C)C)ncnc32)[C@H](O)[C@@H]1O` [Compound 28b], in series [4], the “fold less active against AdoMetDC” value is on record as ~ 20 fold. The same measure, in the same setting: for `CC(C)Nc1ncnc2c1ncn2[C@@H]1O[C@H](CN(C)C/C=C\CN)[C@@H](O)[C@H]1O` [Compound 28c] the value was 3- to 4 fold; for `CCOc1ncnc2c1ncn2[C@@H]1O[C@H](CN(C)C/C=C\CN)[C@@H](O)[C@H]1O` [Compound 28d], around 16 fold. Turning to `CN(C/C=C\CN)C[C@H]1O[C@@H](n2cnc3cncnc32)[C@@H]2OC(C)(C)O[C@@H]21` [Compound 30], the IC50 in series [4] (setting [6]) and in series [4] (setting [7]) was above 50 µM in each case. Regarding `CCCCCCCCC(=O)Nc1ncnc2c1ncn2[C@@H]1O[C@H](CN(C)C/C=C\CN)[C@H]2OC(C)(C)O[C@H]21` [Compound 31], the “fold more potent inhibition of T.b. brucei proliferation than 11a” value in series [5] (compared to comparator 11a) came to 2.6 fold. Moreover, in series [4] (compared to comparator 11a), the “fold more potent inhibition of AdoMetDC enzymatic activity than 11a” value was found to be 3.5 fold.
